This data set concerns CCRIS mutagenicity, Ames/micronucleus/aberration tests. The experiment in a line: CCRIS mutagenicity studies.
[1] abbreviates: Test System: AMES SALMONELLA TYPHIMURIUM, Strain/Indicator: TA98, Metabolic Activation: NONE, Method: STANDARD PLATE.
Where [2] appears, read: Test System: AMES SALMONELLA TYPHIMURIUM, Strain/Indicator: TA100, Metabolic Activation: NONE, Method: STANDARD PLATE.
Setting [3] is: Test System: AMES SALMONELLA TYPHIMURIUM, Strain/Indicator: TA100, Metabolic Activation: RAT, LIVER, S-9, AROCLOR 1254, Method: STANDARD PLATE.
Where [4] appears, read: Test System: AMES SALMONELLA TYPHIMURIUM, Strain/Indicator: TA102, Metabolic Activation: NONE, Method: STANDARD PLATE.
[5] abbreviates: Test System: AMES SALMONELLA TYPHIMURIUM, Strain/Indicator: TA98, Metabolic Activation: NONE, Method: PREINCUBATION
[6] abbreviates: Test System: AMES SALMONELLA TYPHIMURIUM, Strain/Indicator: TA100, Metabolic Activation: NONE, Method: PREINCUBATION
[7] abbreviates: Test System: AMES SALMONELLA TYPHIMURIUM, Strain/Indicator: TA1535, Metabolic Activation: NONE, Method: PREINCUBATION

Structures are written as SMILES. Calls of active or inactive are those of the source. The rule behind the calls is not given here.

`Cc1ccc(C)c(C)c1`: the mutagenic call is “inactive; negative” (Test System: AMES SALMONELLA TYPHIMURIUM, Strain/Indicator: TA97A, Metabolic Activation: NONE, Method: STANDARD PLATE); “inactive; negative” (Test System: AMES SALMONELLA TYPHIMURIUM, Strain/Indicator: TA97A, Metabolic Activation: RAT, LIVER, S-9, AROCLOR 1254, Method: STANDARD PLATE); “inactive; negative” under setting [1]; “inactive; negative” (Test System: AMES SALMONELLA TYPHIMURIUM, Strain/Indicator: TA98, Metabolic Activation: RAT, LIVER, S-9, AROCLOR 1254, Method: STANDARD PLATE); “inactive; negative” under setting [2]; “inactive; negative” under setting [3]. The mutagenic call runs as follows: under setting [4], “inactive; negative”; (Test System: AMES SALMONELLA TYPHIMURIUM, Strain/Indicator: TA102, Metabolic Activation: RAT, LIVER, S-9, AROCLOR 1254, Method: STANDARD PLATE) “inactive; negative”.

`COC(=O)/C(C#N)=C/c1ccc(Br)o1`: the mutagenic call under setting [5] is “inactive; negative”.

In the case of `CCCN(N=O)/C(N)=N/[N+](=O)[O-]`, the mutagenic call was “active; positive” under setting [6]; “active; positive” (Test System: AMES SALMONELLA TYPHIMURIUM, Strain/Indicator: TA100, Metabolic Activation: RAT, LIVER, S-9, KC500 OR PHENOBARBITAL, Method: LIQUID SUSPENSION); “active; positive” under setting [7]; “active; positive” (Test System: AMES SALMONELLA TYPHIMURIUM, Strain/Indicator: TA1535, Metabolic Activation: NONE, Method: STANDARD PLATE); “active; positive” (Test System: AMES SALMONELLA TYPHIMURIUM, Strain/Indicator: TA1535, Metabolic Activation: RAT, LIVER, S-9, KC500 OR PHENOBARBITAL, Method: LIQUID SUSPENSION); “active; positive” (Test System: AMES SALMONELLA TYPHIMURIUM, Strain/Indicator: YG7104, Metabolic Activation: NONE, Method: PREINCUBATION). In addition, the mutagenic call reads like this: (Test System: AMES SALMONELLA TYPHIMURIUM, Strain/Indicator: YG7108, Metabolic Activation: NONE, Method: PREINCUBATION) “active; positive”; (Test System: AMES SALMONELLA TYPHIMURIUM, Strain/Indicator: YG7112, Metabolic Activation: NONE, Method: PREINCUBATION) “active; positive”; (Test System: AMES SALMONELLA TYPHIMURIUM, Strain/Indicator: YG7113, Metabolic Activation: NONE, Method: PREINCUBATION) “active; positive”.

Take `C=C(C)C(=O)OCC(C)C`: the mutagenic call is “inactive; negative” (Test System: AMES SALMONELLA TYPHIMURIUM, Strain/Indicator: TA98, Metabolic Activation: HAMSTER, LIVER, S-9, AROCLOR 1254 (10%), Method: PREINCUBATION); “inactive; negative” under setting [5]; “inactive; negative” (Test System: AMES SALMONELLA TYPHIMURIUM, Strain/Indicator: TA98, Metabolic Activation: RAT, LIVER, S-9, AROCLOR 1254 (10%), Method: PREINCUBATION); “inactive; negative” (Test System: AMES SALMONELLA TYPHIMURIUM, Strain/Indicator: TA100, Metabolic Activation: HAMSTER, LIVER, S-9, AROCLOR 1254 (10%), Method: PREINCUBATION); “inactive; negative” under setting [6]; “inactive; negative” (Test System: AMES SALMONELLA TYPHIMURIUM, Strain/Indicator: TA100, Metabolic Activation: RAT, LIVER, S-9, AROCLOR 1254 (10%), Method: PREINCUBATION). In addition, the mutagenic call runs as follows: (Test System: AMES SALMONELLA TYPHIMURIUM, Strain/Indicator: TA1535, Metabolic Activation: HAMSTER, LIVER, S-9, AROCLOR 1254 (10%), Method: PREINCUBATION) “inactive; negative”; under setting [7], “inactive; negative”; (Test System: AMES SALMONELLA TYPHIMURIUM, Strain/Indicator: TA1535, Metabolic Activation: RAT, LIVER, S-9, AROCLOR 1254 (10%), Method: PREINCUBATION) “inactive; negative”; (Test System: AMES SALMONELLA TYPHIMURIUM, Strain/Indicator: TA1537, Metabolic Activation: HAMSTER, LIVER, S-9, AROCLOR 1254 (10%), Method: PREINCUBATION) “inactive; negative”; (Test System: AMES SALMONELLA TYPHIMURIUM, Strain/Indicator: TA1537, Metabolic Activation: NONE, Method: PREINCUBATION) “inactive; negative”; (Test System: AMES SALMONELLA TYPHIMURIUM, Strain/Indicator: TA1537, Metabolic Activation: RAT, LIVER, S-9, AROCLOR 1254 (10%), Method: PREINCUBATION) “inactive; negative”.

`Cc1cc(N=Nc2ccccc2C)c(N)cc1N`: the mutagenic call is, setting by setting: (Test System: AMES SALMONELLA TYPHIMURIUM, Strain/Indicator: TA100, Metabolic Activation: HUMAN, LIVER, S-9, Method: PREINCUBATION) “inactive; negative”; (Test System: AMES SALMONELLA TYPHIMURIUM, Strain/Indicator: TA100, Metabolic Activation: RAT, LIVER, S-9, BETA-NAPHTHOFLAVONE, Method: PREINCUBATION) “active; positive”; (Test System: AMES SALMONELLA TYPHIMURIUM, Strain/Indicator: TA100, Metabolic Activation: RAT, LIVER, S-9, PHENOBARBITAL, Method: PREINCUBATION) “active; positive”; (Test System: AMES SALMONELLA TYPHIMURIUM, Strain/Indicator: TA100, Metabolic Activation: RAT, LIVER, S-9, Method: PREINCUBATION) “active; positive”; (Test System: UDS RODENT HEPATOCYTES, Strain/Indicator: THY INCORP, Metabolic Activation: NONE, Method: AUTORADIOGRAPHY) “active; positive”.

Consider `C=C1C(=O)O[C@@H]2CCN3CC=C(COC(=O)[C@](C)(O)[C@H](C)[C@H]1C)[C@H]23`, for which the mutagenic call (Test System: AMES SALMONELLA TYPHIMURIUM, Strain/Indicator: TA100, Metabolic Activation: RAT, LIVER, S-9, SODIUM PHENOBARBITAL AND BETA-NAPHTHOFLAVONE, Method: PREINCUBATION) was “inactive; negative”.

In the case of `CC(C)(C)CN(N=O)C(N)=O`, the mutagenic call was “active; positive” (Test System: E. COLI, Strain/Indicator: HS30R UVRA, Metabolic Activation: NONE, Method: PREINCUBATION) and “active; positive” (Test System: E. COLI, Strain/Indicator: O16 POLA, Metabolic Activation: NONE, Method: PREINCUBATION).

For `O=C(O)/C=C/c1ccc([N+](=O)[O-])o1`, the mutagenic call under setting [5] was “active; positive”.

As to `CC(=O)OCc1c2cccc3ccc4cc5cccc6ccc1c(c65)c4c32`, the mutagenic call is “active; positive” under setting [1] and “inactive; negative” under setting [2].

On to `O=c1cc(-c2ccccc2)cc(-c2ccccc2)n1/N=C/c1ccc([N+](=O)[O-])o1`, for which the mutagenic call by setting is: (Test System: AMES SALMONELLA TYPHIMURIUM, Strain/Indicator: TA97, Metabolic Activation: NONE, Method: STANDARD PLATE) “inactive; negative”; under setting [1], “inactive; negative”; under setting [2], “active; positive”; under setting [4], “inactive; negative”.

With `O=[N+]([O-])c1cc(-c2ccccc2)cc([N+](=O)[O-])c1O`, the mutagenic call under setting [5] was “active; positive”.

Regarding `CC1C=Cc2ccc3ccc4ccccc4c3c21` (centres undefined), the mutagenic call under setting [3] is “inactive; negative”.

With `CC(=O)OCCN(CCOC(C)=O)c1ccc([N+](=O)[O-])c2c(NCCCN(C)C)c3ccccc3nc12`, the mutagenic call under setting [1] was “active; positive” and the mutagenic call under setting [2] is “active; positive”.

Source of the values: PubChem BioAssay AID1259407 (Chemical Carcinogenesis Research Information System (CCRIS), 2018).
